Data reported in patent US20070093894A1, “Incorporation of antimicrobial combinations onto devices to reduce infection” (Baylor College of Medicine, priority 2005, published 2007).

What was measured:
Assay type in all cases: cell-based
[1] = system: Enterococcus faecalis (gram positive); assay: Zone of inhibition on agar, antibiotic-coated composite hernia patch segments; settings: hernia patch (polypropylene mesh/PTFE) segment 10x10x2 mm, coating solution 100 mg/ml of each antibiotic, long axis perpendicular to agar; for zone of inhibition at 100000 µg/mL: Enterococcus faecalis
Procedure: (§1) The device used in this example is a composite hernia patch with polypropylene mesh on one side and polytetrafluoroethylene (PTFE) on the other side. Antibiotics were incorporated onto devices by using a patented method (U.S. Pat. No. 6,589,591) that utilized coating solutions that contained 100 mg/ml of minocycline; 100 mg/ml tobramycin; 100 mg/ml gentamicin; 100 mg/ml minocycline and 100 mg/ml tobramycin (minocycline dissolved first); or 100 mg/ml minocycline and 100 mg/ml gentamicin (minocycline dissolved first). The tested square device segments were 10 mm (long)×10 mm (wide)×2 mm (thick). The device segments were placed onto agar with their long axis perpendicular to the agar (i.e. only 2 mm of the segment was in contact with the agar). All zone of inhibition are expressed in mm, and table 1 summarizes the results of the zones of inhibition.

[2] = system: Escherichia coli (gram negative); assay: as above; settings: hernia patch (polypropylene mesh/PTFE) segment 10x10x2 mm, coating solution 100 mg/ml of each antibiotic, long axis perpendicular to agar; for zone of inhibition at 100000 µg/mL: Escherichia coli
Procedure: as §1

[3] = system: Staphyulococcus aureus (gram positive); assay: as above; settings: hernia patch (polypropylene mesh/PTFE) segment 10x10x2 mm, coating solution 100 mg/ml of each antibiotic, long axis perpendicular to agar
Procedure: as §1

[4] = system: Staphylococcus epidermidis; assay: Zone of inhibition on agar, antibiotic-coated polyurethane central venous catheter segments; settings: 7-french polyurethane central venous catheter segment 10x2 mm, coating solution 100 mg/ml of each antibiotic, long axis parallel to agar; for zone of inhibition at 100000 µg/mL: Staphylococcus epidermidis
Procedure: The device used in this example is a 7-french, polyurethane central venous catheter. Antibiotics were incorporated onto devices by using a patented method (U.S. Pat. No. 6,589,591) that utilized coating solutions that contained 100 mg/ml of minocycline; 100 mg/ml tobramycin; 100 mg/ml gentamicin; 100 mg/ml minocycline and 100 mg/ml tobramycin (minocycline dissolved first); or 100 mg/ml minocycline and 100 mg/ml gentamicin (minocycline dissolved first). The tested catheter segments were 10 mm (long)×2 mm (wide). The cather segments were placed onto agar with their long axis parerrel to the agar. All zone of inhibition are expressed in mm, and table 2 summarizes the results of the zones of inhibition.

| Molecule | zone of inhibition at 100000 µg/mL [1] | zone of inhibition at 100000 µg/mL [2] | zone of inhibition at 100000 µg/mL [3] | zone of inhibition at 100000 µg/mL [4] | zone of inhibition, Enterococcus faecalis (gram positive) [1] | zone of inhibition, Escherichia coli (gram negative) [2] | zone of inhibition, Staphyulococcus aureus (gram positive) [3] | zone of inhibition, Staphylococcus epidermidis [4] |
| --- | --- | --- | --- | --- | --- | --- | --- | --- |
| CN(C)c1ccc(O)c2c1C[C@H]1C[C@H]3[C@H](N(C)C)C(O)=C(C(N)=O)C(=O)[C@@]3(O)C(O)=C1C2=O [Minocycline, minocycline] | 3 mm | 3 mm | 11 mm | 30 mm |  |  |  |  |
| NC[C@H]1O[C@H](O[C@H]2[C@H](O)[C@@H](O[C@H]3O[C@H](CO)[C@@H](O)[C@H](N)[C@H]3O)[C@H](N)C[C@@H]2N)[C@H](N)C[C@@H]1O [Tobramycin, tobramycin] | 9 mm | 18 mm | 12 mm | 14 mm |  |  |  |  |
| gentamicin |  |  |  |  | 0 mm | 11 mm | 14 mm | 6 mm |
